Reference: US6894068B2, “Substituted benzimidazoles as non-nucleoside inhibitors of reverse transcriptase” (The United States of America as represented by the …, priority 1997, dated 2005)
pEC50: −log10 of the molar value. Read-outs that look alike come from different tables or passages of the source.

Key:
[1] = test system: HIV-1 isolate Y188C; assay: Cytopathic cell killing assay, MT-4 cells, isolate Y188C; type: cell-based
From the text: (§1) The various HIV isolates tested in the Figures are those corresponding to wild-type virus (NL4-3) and the other strains listed by their RT mutations. The three 4×AZT isolates included in the Figures represent AZT drug-resistant variants. For example, the 4×AZT/L100I isolate has five mutations: four mutations confer increased resistance to AZT, and the other mutation is located within the NNRTI binding pocket. TZB and nevir. (nevirapine) are two well-known NNRTIs, included in this experiment for comparison purposes.
(§2) In this Example, the antiviral and cellular toxicity of NNRTIs was investigated, using the cytopathic cell killing assay described by Yang (Yang et al., “Characteristics of a Group of Non-nucleoside Reverse Transcriptase Inhibitors with Structural Diversity and Potent Anti-Human Immunodeficiency Virus Activity,” Leukemia 9:S75-S85 [1995]). Briefly, in this method cells (e.g., the CEM-SS cell line, available from the NIAID AIDS Research and Reference Program [ARRRP]) were seeded at a density of 5×10^3 cells/well, into the wells of a 96-well microtiter plate. The cells were then infected with HIV virus (either mutant or WT), at a multiplicity of infection (MOI) previously determined to provide complete cell killing by 6 days of culture post-infection (e.g., MOI of 0.01-0.05). Each of the HIV isolates was pre-titered to induce equivalent levels of infection based on cell killing or virus production, prior to their use in these assays. A range of test compound concentrations was added to the wells in triplicate (e.g., serial half-log dilutions) to evaluate inhibition of HIV infection. Controls for each assay included drug controls (drug colorimetric control wells), drug cytotoxicity control wells (cells with drug), virus control wells (cells with virus), and cell viability controls (cells only). Positive control drugs (e.g. AZT and ddC) were also run in parallel.
(§3) After six days of incubation at 37° C., cell viability was determined spectrophotometrically at 450 nm for each well, using the metabolic reduction of XTT to a soluble colored formazan. (See, Gartner and Popovic, “Virus Isolation and Production, in Aldovini and Walker (eds.), Techniques in HIV Research, Stockton Press, NY, pp. […] [1991]; and Nara and Fischinger, “Quantitative Infectivity Assay for HIV-1 and HIV-2, ” Nature 332:469-470 [1988]).
(§4) The in vitro therapeutic index (TI50) was defined as the fold-difference between the EC50 and IC50. The results for the various compounds are included in FIGS. 8 and 19.

[2] = test system: HIV-1 isolate 4xAZT/Y181C; assay: Cytopathic cell killing assay, MT-4 cells, isolate 4xAZT/Y181C; type: cell-based; details: Human immunodeficiency virus 1, MT4, read-out: EC50, isolate 4XAZT/Y181C
From the text: as §1, §2, §3, §4

[3] = test system: HIV-1 WT virus (NL4-3); assay: microbe, parasite or virus in culture; type: cell-based; details: Human immunodeficiency virus 1, NL43, CEM-SS
Summary of the method: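 CEM-SS cells (5×10^3/well) infected with HIV-1 NL4-3 at MOI giving complete killing by day 6 (e.g., 0.01-0.05), with half-log compound dilutions in triplicate. After six days at 37° C., viability measured by XTT reduction at 450 nm; CIC50 is 50% inhibitory concentration of cytopathic killing.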

[4] = test system: HIV-1 isolate V179D; assay: Cytopathic cell killing assay, MT-4 cells, isolate V179D; type: cell-based
From the text: as §1, §2, §3, §4

[5] = test system: HIV-1 isolate V106A; assay: Cytopathic cell killing assay, MT-4 cells, isolate V106A; type: cell-based
From the text: as §1
(§5) In this Example, the antiviral and cellular toxicity of NNRTIs was investigated, using the cytopathic cell killing assay described by Yang (Yang et al., “Characteristics of a Group of Non-nucleoside Reverse Transcriptase Inhibitors with Structural Diversity and Potent Anti-Human Immunodeficiency Virus Activity,” Leukemia 9:S75-S85 [1995]). Briefly, in this method cells (e.g., the CEM-SS cell line, available from the NIAID AIDS Research and Reference Program [ARRRP]) were seeded at a density of 5×10^3 cells/well, into the wells of a 96-well microtiter plate. The cells were then infected with HIV virus (either mutant or WT), at a multiplicity of infection (MOI) previously determined to provide complete cell killing by 6 days of culture post-infection (e.g., MOI of 0.01-0.05). Each of the HIV isolates was pre-titered to induce equivalent levels of infection based on cell killing or virus production, prior to their use in these assays. A range of test compound concentrations was added to the wells in triplicate (e.g., serial half-log dilutions) to evaluate inhibition of HIV infection. […]
(§6) After six days of incubation at 37° C., cell viability was determined spectrophotometrically at 450 nm for each well, using the metabolic reduction of XTT to a soluble colored formazan. (See, Gartner and Popovic, “Virus Isolation and Production, in Aldovini and Walker (eds.), Techniques in HIV Research, Stockton Press, NY, pp. […] [1991]; and Nara and Fischinger, “Quantitative Infectivity Assay for HIV-1 and HIV-2, ” Nature 332:469-470 [1988]). […]

[6] = test system: HIV-1 isolate Y188H; assay: Cytopathic cell killing assay, isolate Y188H; type: cell-based; details: Human immunodeficiency virus 1, read-out: EC50, isolate Y188H
From the text: as §1, §2, §3, §4

[7] = test system: HIV-1 isolate 4xAZT (AZT drug-resistant variant); assay: Cytopathic cell killing assay, MT-4 cells, isolate 4xAZT; type: cell-based; details: Human immunodeficiency virus 1, MT4, read-out: EC50, isolate 4XAZT
From the text: as §1, §5, §6

[8] = test system: HIV-1 isolate V108I; assay: Cytopathic cell killing assay, MT-4 cells, isolate V108I; type: cell-based
Summary of the method: (§7)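 5×10^3 cells/well; HIV-1 isolates pre-titered for equivalent infection, MOI ~0.01-0.05; compound half-log serial dilutions, triplicate; 6 d, 37° C; XTT read at 450 nm; uninfected cells with drug for cytotoxicity.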

[9] = test system: WT and HIV-1 variants containing amino acid substitutions in RT; type: cell-based; details: cytopathic cell killing assay, NNRTI-resistant HIV isolates
[10] = test system: HIV-1 isolate K103N; assay: Cytopathic cell killing assay, MT-4 cells, isolate K103N; type: cell-based; details: for pEC50: Human immunodeficiency virus 1, MT4, read-out: EC50, isolate K103N, Table 8, MT-4 cells
Summary of the method: as §7

[11] = test system: HIV-1 isolate Y181C; assay: Cytopathic cell killing assay, MT-4 cells, isolate Y181C; type: cell-based; details: for pEC50: Human immunodeficiency virus 1, MT4, read-out: EC50, isolate Y181C, Table 8, MT-4 cells
Summary of the method: as §7

[12] = test system: HIV-1 isolate L74V; assay: Cytopathic cell killing assay, MT-4 cells, isolate L74V; type: cell-based
From the text: as §1, §2, §3, §4

With `Nc1cccc2c1nc(-c1c(F)cccc1F)n2Cc1c(F)cccc1F` [Compound 3300, 4-amino-1-(2,6-difluorobenzyl)-2-(2,6-difluorophenyl)benzimidazole] the pEC50 ([1]; Human immunodeficiency virus 1, MT4, read-out: EC50, isolate Y188C, Table 8, MT-4 cells) was 5.57, the EC50 ([1]; Human immunodeficiency virus 1, MT4, read-out: EC50, isolate Y188C, Table 10, values in μM) was 2 µM and the pEC50 [2] was under 5.00. For the same compound, the pEC50 ([3]; Table 7, drug concentration required to reduce cell killing or virus production by 50%, WT, read-out: EC50) was 6.34, the pEC50 ([4]; Human immunodeficiency virus 1, MT4, read-out: EC50, isolate V179D, Table 8, MT-4 cells) was 6.52 and the pEC50 ([5]; Human immunodeficiency virus 1, MT4, read-out: EC50, isolate V106A, Table 8, MT-4 cells) was under 4.70. For the same compound, the pEC50 [6] was under 4.30, the pEC50 [7] was 6.70 and the pEC50 ([8]; Human immunodeficiency virus 1, MT4, read-out: EC50, isolate V1081, Table 8, MT-4 cells) was under 4.70. For the same compound, the “cross-resistance profile, result in words” value [9] was “inhibit HIV-1 better than TZB”, the melting point was 168 to 170 °C and the pEC50 [10] was under 4.70. For the same compound, the pEC50 [11] was 5.22 and the pEC50 ([12]; Human immunodeficiency virus 1, MT4, read-out: EC50, isolate L74V, Table 8, MT-4 cells) was 6.52.

For `CCc1cccc2c1nc(-c1c(F)cccc1F)n2Cc1c(F)cccc1F` [Compound 4011, 1-(2,6-difluorobenzyl)-2-(2,6-difluorophenyl)-4-ethylbenzimidazole], the pEC50 ([1]; Human immunodeficiency virus 1, MT4, read-out: EC50, isolate Y188C) was 5.26, the pEC50 [2] was under 4.70 and the pEC50 [3] was 6.09. The pEC50 ([4]; Human immunodeficiency virus 1, MT4, read-out: EC50, isolate V179D) was 5.74, the pEC50 ([5]; Human immunodeficiency virus 1, MT4, read-out: EC50, isolate V106A) was under 4.70 and the pEC50 [6] was 4.88. It also gave a pEC50 [7] of 5.52, a pEC50 ([8]; Human immunodeficiency virus 1, MT4, read-out: EC50, isolate V108I) of under 4.30 and a pEC50 ([8]; Human immunodeficiency virus 1, MT4, read-out: EC50, isolate V1081) of 5.52. The “cross-resistance profile, result in words” value [9] was “inhibit HIV-1 better than TZB”, the melting point was 165 to 166 °C and the pEC50 [10] was under 4.70. The EC50 ([10]; Human immunodeficiency virus 1, MT4, read-out: EC50, isolate K103N, Table 10, values in μM) was over 50 µM, the pEC50 [11] was under 5.00 and the EC50 ([11]; Human immunodeficiency virus 1, MT4, read-out: EC50, isolate Y181C, Table 10, values in μM) was 7.18 µM. It also gave a pEC50 ([12]; Human immunodeficiency virus 1, MT4, read-out: EC50, isolate L74V) of 5.82.
